Values quoted from earlier work as cited in patent publication US20170176475A1, “NOVEL METHODS AND KITS FOR DETECTING A RIFAMYCIN, OR DERIVATIVE OR ANALOGUE THEREOF” (DREXEL UNIVERSITY, priority 2014, published 2017).

SMILES: CO[C@H]1/C=C/O[C@@]2(C)Oc3c(C)c(O)c4c(O)c(c(/C=N/N5CCN(C)CC5)c(O)c4c3C2=O)NC(=O)/C(C)=C\C=C\[C@H](C)[C@H](O)[C@@H](C)[C@@H](O)[C@@H](C)[C@H](OC(C)=O)[C@@H]1C [rifampicin, (7S,9E,11S,12R,13S,14R,15R,16R,17S, 18S,19E,21Z)-2,15,17,27,29-pentahydroxy-11-methoxy-3,7,12,14,16,18,22-heptamethyl-26-{(E)-[(4-methylpiperazin-1-yl)imino]methyl}-6,23-dioxo-8,30-dioxa-24-azatetracyclo [23.3.1.1^4,7.0^5,28]triaconta-1(28),2,4,9,19,21,25(29),26-octaen-13-yl acetate]
- time by which nearly all the drug in the bile is present in the deacetylated form (bile, normal metabolizing patients): ≤ 6 h
- time to peak plasma drug concentrations after intake (orally administered): two to four
